pIC50: −log10 of the molar value.

The record followed here is ChEMBL document CHEMBL4823297, “Anticancer properties of bisaminoquinolines with modified linkers” (Bioorg Med Chem Lett, 2021).

A short description of experiment [1]: Inhibition of autophagy in human A375P cells assessed as fold change in BNIP3 at 3 uM incubated for 24 hrs by immunoblot analysis relative to control. The experiment is classed as functional. On the technique in general: Immunoblotting shows a protein as a band on a membrane.
A short description of experiment [2]: Inhibition of autophagy in human A375P cells assessed as fold change in LC3BII/ LC3BI ratio at 3 uM incubated for 24 hrs by immunoblot analysis relative to control. The experiment is classed as functional.
The nature of experiment [3]: Inhibition of autophagy in human A375P cells assessed as fold change in p-H2AX at 3 uM incubated for 24 hrs by immunoblot analysis relative to control. The experiment is classed as functional.
The nature of experiment [4]: Inhibition of autophagy in human A375P cells assessed as fold change in p62 at 3 uM incubated for 24 hrs by immunoblot analysis relative to control. The experiment is classed as functional.
The nature of experiment [5]: Cytotoxicity against human A375P cells incubated for 72 hrs by MTT assay. The experiment is classed as functional, cell-based. On the technique in general: Formazan colour is commonly taken as a measure of viable cells.
A short description of experiment [6]: Inhibition of autophagy in human A375P cells assessed as fold change in p62 at 10 uM incubated for 24 hrs by immunoblot analysis relative to control. The experiment is classed as functional.
Experiment [7] is described as follows: Inhibition of autophagy in human A375P cells assessed as fold change in BNIP3 at 10 uM incubated for 24 hrs by immunoblot analysis relative to control. The experiment is classed as functional.
The nature of experiment [8]: Inhibition of autophagy in human A375P cells assessed as fold change in LC3BII/ LC3BI ratio at 10 uM incubated for 24 hrs by immunoblot analysis relative to control. The experiment is classed as functional.
Experiment [9] can be described thus: Inhibition of autophagy in human A375P cells assessed as fold change in H2AX at 10 uM incubated for 24 hrs by immunoblot analysis relative to control. The experiment is classed as functional.

For the molecule `CN(CCCCCCNc1ccnc2cc(Cl)ccc12)CCCCCCNc1ccnc2cc(Cl)ccc12`, the “fold change (FC)” value in [1] worked out at 3.2; in [2], 24; in [3], 4.7; in experiment [4], 1.8. The molecule further showed a pIC50 in experiment [5] of 6.31.
Consider `CNCCN(CCNc1ccnc2cc(Cl)ccc12)CCNc1ccnc2cc(Cl)ccc12`, for which the “fold change (FC)” value in experiment [6] is 0.6; in experiment [7], 0.4; in experiment [8], 0.8; in [9], 1.4. The molecule further showed a negative logarithm of the IC50 (pIC50) in [5] of 4.89.
Regarding `Clc1ccc2c(NCCCCCCNCCCCCCNc3ccnc4cc(Cl)ccc34)ccnc2c1`, the “fold change (FC)” value in experiment [1] is listed as 1.3; in [2] it was 15.2; in experiment [3] it was 20.8; in experiment [4], 1.1.
As to `CCCCCCCCN(CCCCCCNc1ccnc2cc(Cl)ccc12)CCCCCCNc1ccnc2cc(Cl)ccc12`, the results for the “fold change (FC)” value in experiment [1], in experiment [2] and in [4] were 0.7, 27 and 1.6, respectively. The molecule further gave a pIC50 in experiment [5] of 6.38.
As for `CN(C)CCN(CCNc1ccnc2cc(Cl)ccc12)CCNc1ccnc2cc(Cl)ccc12`, the “fold change (FC)” value came to 0.8 in [6], 1.7 in experiment [7], 4.8 in experiment [8] and 3 in experiment [9]. Also, the pIC50 in experiment [5] was 5.34.
On to `CCCCCCCCN(CCNc1ccnc2cc(Cl)ccc12)CCNc1ccnc2cc(Cl)ccc12`, for which the figures for the “fold change (FC)” value in experiment [1], in [2] and in experiment [4] were 5.9, 26 and 4, respectively. Moreover, the negative logarithm of the IC50 (pIC50) in experiment [5] is 5.89.
The molecule `CCOCCOCCN(CCNc1ccnc2cc(Cl)ccc12)CCNc1ccnc2cc(Cl)ccc12` had a negative logarithm of the IC50 (pIC50) in experiment [5] of 5.22.
On to `NCCN(CCNc1ccnc2cc(Cl)ccc12)CCNc1ccnc2cc(Cl)ccc12`, for which the “fold change (FC)” value in experiment [6] was found to be 0.5; in experiment [7], 0.7; in experiment [8], 1; in [9], 1.4. In experiment [5], this molecule had a negative logarithm of the IC50 (pIC50) of 4.91.
Consider `CCOCCOCCN(CCCCCCNc1ccnc2cc(Cl)ccc12)CCCCCCNc1ccnc2cc(Cl)ccc12`, for which the “fold change (FC)” value in [1] turned out to be 5.1; in [2] it was 28; in experiment [4], 2.7. This molecule gave a negative-log IC50 (pIC50) in experiment [5] of 6.19.

As a reminder, the pIC50 is −log10 of the IC50, conventionally taken in molar units. High values mean a low IC50, low ones a high IC50.
